From patent US20210353749A1, “GUANABENZ AS AN ADJUVANT FOR IMMUNOTHERAPY” (UNIVERSITÉ CATHOLIQUE DE LOUVAIN, priority 2018, published 2021)

Key:
[1] = system: P1A-antigen specific CD8+ T cells; assay: Immunization with irradiated L1210-P1A-B7.1 tumor cells; assay type: in vivo, DBA/2 mice; details: 100 μg (5 mg/kg) guanabenz with vaccine, vs negative control and immunization alone
Protocol: Immunization with irradiated L1210-P1A-B7.1 tumor cells: DBA/2 mice received a vaccine consisting of 1 million irradiated L1210-P1A-B7.1 cells expressing the P1A antigen either alone or with 100 μg (5 mg/kg) guanabenz. When administered, guanabenz was given 1 hour before the immunization and daily after the immunization.
Tetramer staining: one week after the immunization, the spleen of each mouse was collected. Isolated splenocytes from the immunized mice were cultured and restimulated with L1210-P1A-B7.1 cells at a ratio of 1:1. Four days after restimulation, P1A-antigen specific CD8^+ T cells were stained with PE-conjugated P1A tetramer and APC-conjugated anti-CD8 antibody.
Interferon gamma secretion: one week after the immunization, the spleen of each mouse was collected. Splenocytes from the immunized mice were restimulated with L1210-P1A-B7.1 cells at a ratio of 1:1. Four days after restimulation, the splenocytes were collected and plated at 50,000 cells per well in 96 U plate. L1210-P1A-B7.1 cells were added to each well as target cells at a ratio of 1:1. The plate was then incubated at 37° C. overnight. At the end of the incubation, the supernatant from the cells were collected and the amount of secreted IFNγ was measured by ELISA according to the manufacturer's instruction (R&D). […]

[2] = system: IFNγ producing CD8+ T cells; assay: Immunization with ovalbumin; assay type: in vivo, C57BL/6J mice; details: 100 μg (5 mg/kg) guanabenz with OVA/Alhydrogel, vs non-immunized control
Protocol: Immunization with Ovalbumin: C57BL/6J mice were immunized once by intraperitoneal (i.p.) injection of 200 ug of OVA protein adsorbed onto Alhydrogel adjuvant 2% (Sigma) These mice were administered 100 μg (5 mg/kg) of guanabenz 2 hours before the immunization and daily after the immunization. […] Intracellular IFNγ staining: one week after the immunization, the blood and spleen of each mouse were collected. Cells derived from the spleen and blood of each immunized mouse were cultured for 1 hour in 96 well U bottomed plates at 37° C. in the presence of 10 μM OVA peptide. Brefeldin A (10 μg/mL) was added to each well and the cells were incubated for an additional 4 hours. The immune response of each mouse was evaluated by measuring the amount of IFNγ producing CD8^+ T cells using antibodies against CD8 and IFNγ. Samples were then examined by FACS Fortessa flow cytometry.

[3] = system: TiRP tumor; assay: TiRP melanoma model with adoptive cell transfer of activated P1A-specific CD8+ T cells; assay type: in vivo, mouse
Excerpt: TiRP mice: TiRP mice have been created by crossing Ink4a/Arf^flox/flox mice with mice carrying a transgenic construct controlled by the tyrosinase promoter and driving the expression of H-Ras^12V and Trap1a which encodes a MAGE-type tumor antigen P1A; the promoter is separated from the coding region by a stop cassette made of a floxed self-deleting CreER (Huijbers et al., 2006, Cancer Res 66, 3278-3286). Those mice were backcrossed to a B10.D2 background and bred to homozygosity. TCRP1A mice heterozygous for the H-2Ld/P1A35-43-specific TCR transgene were kept on the B10.D2; Rag1^−/− background (Shanker et al., 2004, J Immunol 172, 5069-5077). All mice used in this study were produced under specific pathogen free (SPF) conditions at the animal facility of the Ludwig Institute for Cancer Research. All the rules concerning animal welfare have been respected according to the 2010/63/EU Directive. All procedures were performed with the approval of the local Animal Ethical Committee, with reference 2015/UCL/MD/15.
A fresh solution of 40H-Tamoxifen was prepared by dissolving 40H-Tamoxifen (Imaginechem) in 100% ethanol and mineral oil (ratio 1:9) followed by 30-min sonication, and injected subcutaneously (2 mg/200 μL per mouse) in the neck area of gender-matched 7 weeks old TiRP mice. Tumor appearance was monitored daily and tumors were measured three times/week. Tumor volume (in mm^3) was calculated by the following formula: Volume=width^2×length/2. Tumor-bearing TiRP mice were randomized based on the tumor size when average volume was 400 mm^3, 500 mm^3 or 1000 mm^3 as indicated.
T cells were incubated with guanabenz (10, 20, or 40 μM) for 16 h to 24 h as indicated. Mice received a daily intra-peritoneal injection of guanabenz (5 mg/kg) or vehicle (PBS) from the day of randomization (and the day of ACT when applicable) until the day of sacrifice.
For the adoptive cell transfer (ACT), P1A-specific (TCRP1A) CD8^+ T cells were isolated from spleens and lymph nodes of TCRP1A mice as described hereinabove, and stimulated in vitro by co-culture with irradiated (10.000 rads) L1210-P1A-B7.1 cells (Gajewski et al., 1995, J Immunol 154, 5637-5648) at 1:2 ratio (0.5×10^5 CD8^+ T cells and 10^5 L1210-P1A-B7.1 cells per well in 48-well plates) in IMDM (GIBCO) containing 10% fetal bovine serum supplemented with L-arginine (0.55 mM, Merck), L-asparagine (0.24 mM, Merck), glutamine (1.5 mM, Merck), betamercaptoethanol (50 μM, Sigma), 50 UmL^−1 penicillin and […] (Life Technologies). Four days later, TCRP1A CD8^+ T cells were purified on a Lymphoprep gradient (StemCell) and 10^7 living cells were injected intravenously in 200 μL PBS in TiRP-tumor bearing mice on the day of randomization.
Mice received a daily intra-peritoneal injection of alprenolol (5 mg/kg) or vehicle (PBS) from the day of ACT until the day of sacrifice.
T cells were incubated with sunitinib (0.1, 0.3, 0.8, 2.5 or 4 μM) for 16 h as indicated. Mice received a daily dose of sunitinib (20 mg/kg) or vehicle (PBS) by oral gavage from the day of ACT until the day of sacrifice.

Which results are given for `NC(N)=N/N=C/c1c(Cl)cccc1Cl` [guanabenz, 2-[(E)-(2,6-dichlorophenyl)methylideneamino]guanidine]?
splenocyte IFNγ secretion (ELISA) ([1]; activation with L1210-P1A-B7.1 cells, FIG. 7B): significant increase; percentage of P1A-antigen specific CD8+ T cells among total CD8+ T cells after restimulation with the P1A-antigen ([1]; splenocytes one week after immunization, FIG. 7A): significant increase; percentage of IFNγ producing CD8+ T cells among total CD8+ T, blood ([2]; blood cells with 10 μM OVA peptide, FIG. 8A): significant increase; percentage of IFNγ producing CD8+ T cells among total CD8+ T, spleen ([2]; spleen cells with 10 μM OVA peptide, FIG. 8B): significant increase; tumor growth ([3]; guanabenz 5 mg/kg i.p. daily with ACT of 10 million activated T cells, day 0 to day 18, vs ACT alone, FIG. 5A): significantly decreased; tumor infiltration of CD8+ T cells (P1A tetramer+ CD8+ T cells among total living cells and among total CD8+ T cells) ([3]; guanabenz 5 mg/kg i.p. daily with ACT, 10 days after ACT, FIG. 5C-D): increased; apoptosis of the adoptively transferred CD8+ T cells ([3]; guanabenz 5 mg/kg i.p. daily with ACT, 10 days after ACT, FIG. 5E): reduced; percentage of CD69+ P1A-specific CD8+ T cells (T cell activation marker) ([3]; guanabenz 5 mg/kg i.p. daily with ACT, 10 days after ACT, FIG. 5F): increased percentage; tumor weight on the day of sacrifice ([3]; guanabenz 5 mg/kg i.p. daily with ACT, day 18, vs ACT alone, FIG. 5B): significantly decreased
